Assay results from the supplement of paper PMC8149375.

Columns and labels:
Settings in all cases: treatment: drug + dasatinib (fixed dose, not stated); 5 days
[1] = test system: 769-P; experiment: GI50 of drug in presence of dasatinib; higher = less potent
Description: (§1)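 Primary HTS combination arm: 8 RCC cell lines treated with 8 doses (up to 10 uM) of each library drug plus a fixed dose of dasatinib (dose not stated) for 5 days; viability read by CellTiter-Glo and normalised to DMSO. GI50 was fitted with XLfit, AUC is the area under the dose-response curve, and minimum viability is the lowest fraction of DMSO viability across doses.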

[2] = test system: 786-O; experiment: as above
Description: as §1

[3] = test system: A498; experiment: as above
Description: as §1

[4] = test system: ACHN; experiment: as above
Description: as §1

[5] = test system: CAKI-1; experiment: as above
Description: as §1

[6] = test system: SN12C; experiment: as above
Description: as §1

[7] = test system: TK-10; experiment: as above
Description: as §1

[8] = test system: UO-31; experiment: as above
Description: as §1

[9] = test system: 769-P; experiment: minimum viability across doses, drug + dasatinib, relative to DMSO (fraction); higher = less growth inhibition
Description: as §1

[10] = test system: 786-O; experiment: as above
Description: as §1

[11] = test system: A498; experiment: as above
Description: as §1

[12] = test system: ACHN; experiment: as above
Description: as §1

[13] = test system: CAKI-1; experiment: as above
Description: as §1

[14] = test system: SN12C; experiment: as above
Description: as §1

[15] = test system: TK-10; experiment: as above
Description: as §1

[16] = test system: UO-31; experiment: as above
Description: as §1

[17] = test system: 769-P; experiment: AUC of dose-response viability curve, drug + dasatinib, normalised to DMSO (arbitrary (AUC of normalised viability)); higher = less growth inhibition
Description: as §1

[18] = test system: 786-O; experiment: as above
Description: as §1

[19] = test system: A498; experiment: as above
Description: as §1

[20] = test system: ACHN; experiment: as above
Description: as §1

[21] = test system: CAKI-1; experiment: as above
Description: as §1

[22] = test system: SN12C; experiment: as above
Description: as §1

[23] = test system: TK-10; experiment: as above
Description: as §1

[24] = test system: UO-31; experiment: as above
Description: as §1

Row | SMILES | GI50 of drug [1] [nM] | GI50 of drug [2] [nM] | GI50 of drug [3] [nM] | GI50 of drug [4] [nM] | GI50 of drug [5] [nM] | GI50 of drug [6] [nM] | GI50 of drug [7] [nM] | GI50 of drug [8] [nM] | minimum viability across doses [9] | minimum viability across doses [10] | minimum viability across doses [11] | minimum viability across doses [12] | minimum viability across doses [13] | minimum viability across doses [14] | minimum viability across doses [15] | minimum viability across doses [16] | AUC of dose-response viability curve [17] | AUC of dose-response viability curve [18] | AUC of dose-response viability curve [19] | AUC of dose-response viability curve [20] | AUC of dose-response viability curve [21] | AUC of dose-response viability curve [22] | AUC of dose-response viability curve [23] | AUC of dose-response viability curve [24]
1 | CCCCCCCCCCCCc1ccc(S(=O)(=O)Nc2nncs2)cc1 [PHT-427] + Cc1nc(Nc2ncc(C(=O)Nc3c(C)cccc3Cl)s2)cc(N2CCN(CCO)CC2)n1 [dasatinib] | > 10000 | 4870 | > 10000 | > 10000 | > 10000 | > 10000 | > 10000 | > 10000 | 0.631 | 0.455 | 0.912 | 0.47 | 0.656 | 0.691 | 0.67 | 1.13 | 2.43 | 1.91 | 3.58 | 1.87 | 2.43 | 2.53 | 2.53 | 4.28
2 | COCC(=O)NC/C=C/c1ccc2ncnc(Nc3ccc(Oc4ccc(C)nc4)c(C)c3)c2c1 + Cc1nc(Nc2ncc(C(=O)Nc3c(C)cccc3Cl)s2)cc(N2CCN(CCO)CC2)n1 [dasatinib] | 2130 | 9120 | > 10000 | 3030 | 6790 | > 10000 | 3970 | > 10000 | 0.253 | 0.479 | 0.925 | 0.386 | 0.492 | 0.632 | 0.406 | 0.653 | 2.18 | 2.46 | 3.67 | 1.88 | 2.26 | 2.48 | 2.41 | 3.68
3 | CC[C@@H]1C(=O)N(C)c2cnc(Nc3ccc(C(=O)N[C@H]4CC[C@H](N5CCN(CC6CC6)CC5)CC4)cc3OC)nc2N1C(C)C [BI6727 (Volasertib)] + Cc1nc(Nc2ncc(C(=O)Nc3c(C)cccc3Cl)s2)cc(N2CCN(CCO)CC2)n1 [dasatinib] | 43.2 | 10.5 | 138 | 27.8 | 55.2 | 58.6 | 160 | 151 | 0.0202 | 0.0043 | 0.0361 | 0.00653 | 0.00782 | 0.0772 | 0.00827 | 0.0151 | 1.16 | 0.664 | 1.83 | 1.13 | 1.25 | 1.37 | 1.61 | 2.02
4 | CNC(=O)c1ccccc1Sc1ccc2c(/C=C/c3ccccn3)n[nH]c2c1 [Axitinib] + Cc1nc(Nc2ncc(C(=O)Nc3c(C)cccc3Cl)s2)cc(N2CCN(CCO)CC2)n1 [dasatinib] | 1400 | > 10000 | 7690 | 2980 | 439 | 622 | > 10000 | 7850 | 0.159 | 0.635 | 0.457 | 0.271 | 0.162 | 0.262 | 0.715 | 0.392 | 2.02 | 2.8 | 3.26 | 2.14 | 1.8 | 2.08 | 2.91 | 3.37
5 | CNC(=O)c1c(F)cccc1Nc1nc(Nc2cc3c(cc2OC)CCN3C(=O)CN(C)C)nc2[nH]ccc12 + Cc1nc(Nc2ncc(C(=O)Nc3c(C)cccc3Cl)s2)cc(N2CCN(CCO)CC2)n1 [dasatinib] | 1300 | 686 | 8320 | 434 | 919 | 1520 | 1660 | 2920 | 0.0146 | 0.00553 | 0.015 | 0.0022 | 0.00312 | 0.004 | 0.189 | 0.0173 | 1.96 | 1.84 | 3.85 | 1.62 | 1.87 | 2.11 | 2.17 | 3.45
6 | O=C(Nc1cc(C(F)(F)F)cc(C(F)(F)F)c1)c1cc(Cl)ccc1O [IMD 0354] + Cc1nc(Nc2ncc(C(=O)Nc3c(C)cccc3Cl)s2)cc(N2CCN(CCO)CC2)n1 [dasatinib] | 557 | 373 | 1700 | 220 | 481 | 1340 | 759 | 2030 | 0.00617 | 0.00625 | 0.0122 | 0.00153 | 0.0138 | 0.00339 | 0.07 | 0.0139 | 1.9 | 1.62 | 2.92 | 1.29 | 1.85 | 1.97 | 2.03 | 4.26
7 | CCS(=O)(=O)c1cccc(-c2cc(C(=O)NC3CCN(C)CC3)c(C)c3[nH]c4ncc(C)cc4c23)c1 [TAK-901] + Cc1nc(Nc2ncc(C(=O)Nc3c(C)cccc3Cl)s2)cc(N2CCN(CCO)CC2)n1 [dasatinib] | 4010 | 171 | 588 | 235 | 318 | 347 | 607 | 8850 | 0.344 | 0.00567 | 0.013 | 0.0237 | 0.0186 | 0.00509 | 0.0604 | 0.287 | 2.27 | 1.55 | 2.63 | 1.5 | 1.62 | 1.52 | 1.93 | 4.3
